According to PubChem BioAssay AID248 (DTP/NCI, 2004):
“And” between values parts separate entries of the source, which are not always exact repeats. Equal values may be shown once. Toxic doses and inconclusive results are not listed. Cut-off read from the data, not from the text of the source: active = T/C of 150% or more; inactive = T/C below 125%.

Test system: L1210 leukemia ip in BDF1 mice, survival T/C
Test: NCI In Vivo Anticancer Drug Screen. Data for tumor model L1210 Leukemia (intraperitoneal) in B6D2F1 (BDF1) mice
Conditions: endpoint: mean survival time, higher = longer survival
Method in brief: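 Survival endpoint. Drug-treated group vs vehicle group, expressed as T divided by C. Tumor passaged by transplantation.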

[1] = dose: 100.0 mg/kg/injection, schedule: Q01DX009 (ip), vehicle: saline with Tween-80
[2] = dose: 100.0 mg/kg/injection, schedule: Q04DX003 (ip), vehicle: saline with Tween-80
[3] = dose: 200.0 mg/kg/injection, schedule: Q01DX009 (ip), vehicle: saline with Tween-80
[4] = dose: 200.0 mg/kg/injection, schedule: Q04DX003 (ip), vehicle: saline with Tween-80
[5] = dose: 400.0 mg/kg/injection, schedule: Q01DX009 (ip), vehicle: saline with Tween-80
[6] = dose: 400.0 mg/kg/injection, schedule: Q04DX003 (ip), vehicle: saline with Tween-80
[7] = dose: 100.0 mg/kg/injection, schedule: Q01DX001 (ip), vehicle: Klucel (hydroxypropylcellulose) (HPC)
[8] = dose: 200.0 mg/kg/injection, schedule: Q01DX001 (ip), vehicle: Klucel (hydroxypropylcellulose) (HPC)
[9] = dose: 100.0 mg/kg/injection, schedule: Q04DX002 (ip), vehicle: Klucel (hydroxypropylcellulose) (HPC)
[10] = dose: 200.0 mg/kg/injection, schedule: Q04DX002 (ip), vehicle: Klucel (hydroxypropylcellulose) (HPC)
[11] = dose: 100.0 mg/kg/injection, schedule: Q04DX003 (ip), vehicle: Klucel (hydroxypropylcellulose) (HPC)
[12] = dose: 200.0 mg/kg/injection, schedule: Q04DX003 (ip), vehicle: Klucel (hydroxypropylcellulose) (HPC)
[13] = dose: 400.0 mg/kg/injection, schedule: Q04DX003 (ip), vehicle: Klucel (hydroxypropylcellulose) (HPC)
[14] = dose: 50.0 mg/kg/injection, schedule: Q01DX009 (ip), vehicle: saline
[15] = dose: 100.0 mg/kg/injection, schedule: Q01DX009 (ip), vehicle: saline

Measured: T/C

Cc1c2cnccc2c(C)c2c1c1ccccc1n2CCCN1C(=O)c2ccccc2C1=O
inactive: dose: 50.0 mg/kg/injection, schedule: Q04DX003 (ip), vehicle: saline with Tween-80 100 % of control | [1] 104 % of control | [2] 97 % of control | dose: 150.0 mg/kg/injection, schedule: Q01DX001 (oral), vehicle: saline with Tween-80 105 % of control | [3] 102 % of control and 107 % of control | [4] 101 % of control | dose: 300.0 mg/kg/injection, schedule: Q01DX001 (oral), vehicle: saline with Tween-80 112 % of control | [5] 111 % of control and 120 % of control | [6] 117 % of control | dose: 600.0 mg/kg/injection, schedule: Q01DX001 (oral), vehicle: saline with Tween-80 112 % of control | dose: 600.0 mg/kg/injection, schedule: Q01DX009 (ip), vehicle: saline with Tween-80 121 % of control | dose: 1200.0 mg/kg/injection, schedule: Q01DX001 (oral), vehicle: saline with Tween-80 121 % of control

COC(=O)C#CCCC#CC(C)=O
inactive: dose: 18.0 mg/kg/injection, schedule: Q04DX002 (ip), vehicle: gum acacia 96 % of control | dose: 37.0 mg/kg/injection, schedule: Q04DX002 (ip), vehicle: gum acacia 107 % of control | dose: 75.0 mg/kg/injection, schedule: Q04DX002 (ip), vehicle: gum acacia 102 % of control and 104 % of control

CC1(c2ccccc2)SC(C)(c2ccccc2)SC(c2ccccc2)(c2ccccc2)S1 (stereo not given)
inactive: [7] 100 % of control | [8] 98 % of control | dose: 400.0 mg/kg/injection, schedule: Q01DX001 (ip), vehicle: Klucel (hydroxypropylcellulose) (HPC) 91 % of control

N#CCCN(C(=O)Nc1ccc(Cl)c(Cl)c1)C1CCCCC1
inactive: [9] 107 % of control | [10] 100 % of control | dose: 400.0 mg/kg/injection, schedule: Q04DX002 (ip), vehicle: Klucel (hydroxypropylcellulose) (HPC) 111 % of control

CC(C)(CS(C)(=O)=O)C(=O)OCC(=O)c1ccccc1
inactive: [11] 108 % of control | [12] 105 % of control | [13] 105 % of control

Cc1nc2[nH]c(=O)[nH]c(=O)c2[nH]1
inactive: [2] 91 % of control | [4] 101 % of control | [6] 90 % of control

CC1(O)Cn2c(nc3nccnc32)S1 (stereo not given)
inactive: dose: 25.0 mg/kg/injection, schedule: Q01DX009 (ip), vehicle: saline 100 % of control | [14] 96 % of control | [15] 94 % of control | dose: 100.0 mg/kg/injection, schedule: Q04DX003 (ip), vehicle: saline 100 % of control | dose: 200.0 mg/kg/injection, schedule: Q04DX003 (ip), vehicle: saline 96 % of control

CN(C)C=NC1CCC(CC2CCCCC2)CC1 (stereo not given)
inactive: dose: 75.0 mg/kg/injection, schedule: Q04DX003 (ip), vehicle: Klucel (hydroxypropylcellulose) (HPC) 92 % of control | [7] 96 % of control | dose: 150.0 mg/kg/injection, schedule: Q04DX003 (ip), vehicle: Klucel (hydroxypropylcellulose) (HPC) 100 % of control | [8] 95 % of control | dose: 300.0 mg/kg/injection, schedule: Q04DX003 (ip), vehicle: Klucel (hydroxypropylcellulose) (HPC) 97 % of control

c1ccc2c(c1)NCCN2
inactive: dose: 12.5 mg/kg/injection, schedule: Q01DX001 (ip), vehicle: saline 97 % of control | dose: 25.0 mg/kg/injection, schedule: Q01DX001 (ip), vehicle: saline 94 % of control

NC(=O)c1ncc[nH]c1=O
inactive: dose: 50.0 mg/kg/injection, schedule: Q01DX009 (ip), vehicle: Klucel (hydroxypropylcellulose) (HPC) 94 % of control | [14] 97 % of control | dose: 100.0 mg/kg/injection, schedule: Q01DX009 (ip), vehicle: Klucel (hydroxypropylcellulose) (HPC) 97 % of control | [15] 103 % of control | [11] 97 % of control | dose: 200.0 mg/kg/injection, schedule: Q01DX009 (ip), vehicle: Klucel (hydroxypropylcellulose) (HPC) 105 % of control | dose: 200.0 mg/kg/injection, schedule: Q01DX009 (ip), vehicle: saline 90 % of control | [12] 95 % of control | [13] 100 % of control

CNc1nc(Cl)cc2c1ncn2C1OC(CO)C(O)C1O (stereo not given)
inactive: dose: 100.0 mg/kg/injection, schedule: Q01DX005 (ip), vehicle: saline 100 % of control | dose: 200.0 mg/kg/injection, schedule: Q01DX005 (ip), vehicle: saline 100 % of control

CC(=O)Oc1c(-c2ccccc2)cc([N+](=O)[O-])cc1[N+](=O)[O-]
inactive: dose: 50.0 mg/kg/injection, schedule: Q04DX002 (ip), vehicle: Klucel (hydroxypropylcellulose) (HPC) 97 % of control | [9] 103 % of control | [10] 94 % of control

COc1ccc(OC)c(NC(=S)NC(=O)c2ccc(Cl)cc2Cl)c1
inactive: dose: 100.0 mg/kg/injection, schedule: Q01DX001 (ip), vehicle: saline with Tween-80 89 % of control | [1] 100 % of control and 102 % of control | dose: 100.0 mg/kg/injection, schedule: Q04DX002 (ip), vehicle: saline with Tween-80 93 % of control and 100 % of control | [2] 105 % of control | dose: 200.0 mg/kg/injection, schedule: Q01DX001 (ip), vehicle: saline with Tween-80 86 % of control | [3] 96 % of control and 99 % of control | dose: 200.0 mg/kg/injection, schedule: Q04DX002 (ip), vehicle: saline with Tween-80 106 % of control and 107 % of control | [4] 92 % of control | dose: 400.0 mg/kg/injection, schedule: Q01DX001 (ip), vehicle: saline with Tween-80 96 % of control | [5] 89 % of control | dose: 400.0 mg/kg/injection, schedule: Q04DX002 (ip), vehicle: saline with Tween-80 93 % of control | [6] 95 % of control
